The results in this text go back to patent US9796733B2, “Imidazo-pyrazine derivatives useful as soluble guanylate cyclase activators” (Merck Sharp & Dohme Corp., priority 2014, dated 2017).

One assay concerns the target T1, sGC α1/β1 heterodimer (Homo sapiens, UniProt Q02108+Q02153).
T1 construct: expressed in transfected cells; host or cells: CHO-K1 (clone #7, CHO-K1/sGC)
T1 sequence (Q02108 1-690): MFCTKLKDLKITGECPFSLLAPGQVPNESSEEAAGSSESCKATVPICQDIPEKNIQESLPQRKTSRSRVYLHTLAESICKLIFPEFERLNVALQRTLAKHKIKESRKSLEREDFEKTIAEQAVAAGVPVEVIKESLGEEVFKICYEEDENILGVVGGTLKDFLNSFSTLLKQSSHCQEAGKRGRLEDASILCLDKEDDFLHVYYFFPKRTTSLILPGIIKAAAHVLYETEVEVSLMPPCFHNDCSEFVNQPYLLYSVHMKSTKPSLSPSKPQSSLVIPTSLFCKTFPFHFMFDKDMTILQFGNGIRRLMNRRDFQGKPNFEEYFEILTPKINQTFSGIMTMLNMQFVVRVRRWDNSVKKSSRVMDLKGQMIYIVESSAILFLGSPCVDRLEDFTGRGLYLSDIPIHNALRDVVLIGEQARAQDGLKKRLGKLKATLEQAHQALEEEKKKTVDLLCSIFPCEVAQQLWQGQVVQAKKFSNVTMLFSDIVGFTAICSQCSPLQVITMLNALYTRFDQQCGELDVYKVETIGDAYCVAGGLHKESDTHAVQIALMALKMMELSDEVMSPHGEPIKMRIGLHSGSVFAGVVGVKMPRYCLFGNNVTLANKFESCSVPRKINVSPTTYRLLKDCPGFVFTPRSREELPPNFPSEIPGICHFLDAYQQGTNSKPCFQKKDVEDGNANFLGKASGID
T1 sequence (Q02153 1-619): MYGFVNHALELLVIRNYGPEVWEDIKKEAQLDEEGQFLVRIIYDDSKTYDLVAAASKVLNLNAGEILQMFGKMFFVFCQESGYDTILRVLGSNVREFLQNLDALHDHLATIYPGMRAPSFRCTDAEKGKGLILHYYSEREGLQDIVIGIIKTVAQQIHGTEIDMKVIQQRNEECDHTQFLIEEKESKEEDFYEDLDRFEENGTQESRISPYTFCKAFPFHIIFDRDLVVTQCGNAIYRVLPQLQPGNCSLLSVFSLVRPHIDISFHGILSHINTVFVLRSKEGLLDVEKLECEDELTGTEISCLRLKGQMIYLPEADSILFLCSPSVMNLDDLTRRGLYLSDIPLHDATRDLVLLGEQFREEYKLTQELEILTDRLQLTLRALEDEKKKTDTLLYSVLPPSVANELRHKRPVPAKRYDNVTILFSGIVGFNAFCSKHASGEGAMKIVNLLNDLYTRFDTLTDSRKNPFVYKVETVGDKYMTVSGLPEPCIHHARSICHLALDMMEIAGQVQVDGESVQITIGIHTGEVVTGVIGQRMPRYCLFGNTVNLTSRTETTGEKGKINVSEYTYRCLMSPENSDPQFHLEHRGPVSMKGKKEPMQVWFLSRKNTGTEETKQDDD
The assay can be described thus: Cell-based sGC functional assay (CASA assay): cGMP generation in CHO-K1/sGC cells, HTRF detection. The conditions noted are these: for Emax: CHO-K1, percent activation relative to standard Compound A in CHO-K1/sGC cells, read-out: % Act.; for EC50: inflection point (IP) of cGMP generation in CHO-K1/sGC cells, 4P fit, activity expressed as percentage of Compound A. The method, boiled down:
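cGMP was quantified by HTRF after 1 hr, 37° C exposure of thawed CHO-K1 cells expressing sGC α1/β1 to compound, with or without 1 μM DETA-NO. IBMX (0.5 mM) blocked cGMP breakdown, and DMSO was 2.5% final. Percent of standard Compound A's maximal cGMP was fitted (4P) for inflection point.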
For orientation: In TR-FRET formats the signal depends on donor and acceptor labels being close together.

In assay [1] the test system is Spontaneously hypertensive rats (SHR). Nature of the assay: Acute efficacy in spontaneously hypertensive rats (SHR): telemetry blood pressure lowering after a single oral dose. Format: in vivo, rat. An excerpt: Acute Efficacy in Spontaneously Hypertensive Rats (SHR)
Spontaneously hypertensive rats (SHR, male, Charles River) were implanted with DSI TA11PA-C40 telemetry device (Data Sciences, Inc., St. Paul, Minn.) under isoflurane or ketamine/metomidine anesthesia. The telemetry unit catheter was inserted into the descending aorta via the femoral artery and the telemetry device was implanted subcutaneously in the left flank area. Animals were allowed to recover from surgery for 14 days before the start of any studies. Blood pressure, heart rate, and activity signals from conscious, freely moving rats were recorded continuously for 30 seconds every 10 minutes. On the day prior to administration of compound, a single oral dose of vehicle (10% transcutol/20% Cremophor/70% water) was administered to all animals to establish baseline control data. The blood pressure lowering efficacy of compound (PO) or vehicle was evaluated following a single oral gavage. Data were collected as hourly averages, and changes in blood pressure were calculated by subtracting control baseline data on an hourly basis. Animals were maintained on normal diet with a 12 hour light-dark cycle.
Maximum peak decreases of systolic blood pressure (SBP) in SHR at a particular P.O. dose (mpk milligrams per kilogram) for the following representative compounds are provided. Category A=SBP in SHRs<20 mmHg; Category B=SBP in SHRs 20-40 mmHg; Category C=SBP in SHRs>40 mmHg

`CC1(c2ccc(Cl)cn2)C(=O)Nc2nc(-c3cn4ccnc4c(CCCC(F)(F)F)n3)nc(N)c21` (stereo not drawn) [Example 208A, 4-amino-5-(5-chloropyridin-2-yl)-5-methyl-2-(8-(4,4,4-trifluorobutyl)imidazo[1,2-a]pyrazin-6-yl)-5H-pyrrolo[2,3-d]pyrimidin-6(7H)-one]: at sGC α1/β1 heterodimer, the Emax stood at 88% and the EC50 came out at 36 nM. Further, the “Maximum peak decrease of systolic blood pressure (SBP) in SHR, Cat.” value (shortened to “Maximum peak decrease”) in assay [1] (P.O. 0.3 mpk) is “C (Category C=SBP in SHRs>40 mmHg)”.

`Nc1nc(-c2cn3ccnc3c(CCC(F)(F)F)n2)nc2c1C(c1ccc(Cl)c(F)c1)(C1CC1)C(=O)N2` (stereo not drawn) [Example 190A, 4-amino-5-(4-chloro-3-fluorophenyl)-5-cyclopropyl-2-(8-(3,3,3-trifluoropropyl)imidazo[1,2-a]pyrazin-6-yl)-5H-pyrrolo[2,3-d]pyrimidin-6(7H)-one]: on sGC α1/β1 heterodimer, the Emax worked out at 90% and the EC50 worked out at 114 nM. The “Maximum peak decrease” value in assay [1] (P.O. 3.0 mpk) is reported as “C (Category C=SBP in SHRs>40 mmHg)”.

With `CCc1nc(-c2nc(N)c3c(n2)NC(=O)C3(C)c2ccc(Cl)cc2)cn2ccnc12` (single isomer, unassigned) [Example 1A, 4-Amino-5-(4-chlorophenyl)-2-(8-ethylimidazo[1,2-a]pyrazin-6-yl)-5-methyl-5H-pyrrolo[2,3-d]pyrimidin-6(7H)-one], on sGC α1/β1 heterodimer, the Emax was determined as 124% and the concentration for a half-maximal effect (EC50) was 894 nM. Also, the “Maximum peak decrease” value in assay [1] (P.O. 1.0 mpk) is “B (Category B=SBP in SHRs 20-40 mmHg)”.

Take `CCCc1nc(-c2nc(N)c3c(n2)NC(=O)C3(C)c2ccc(Cl)cc2)cn2ccnc12` (single isomer, unassigned) [Example 2A, 4-Amino-5-(4-chlorophenyl)-5-methyl-2-(8-propylimidazo[1,2-a]pyrazin-6-yl)-5H-pyrrolo[2,3-d]pyrimidin-6(7H)-one]: at sGC α1/β1 heterodimer, the Emax was found to be 74% and the EC50 was 105 nM. Moreover, in assay [1] (P.O. 1.0 mpk), the “Maximum peak decrease” value is “C (Category C=SBP in SHRs>40 mmHg)”.

As to `Cc1nnc(C2(C3CC3)C(=O)Nc3nc(-c4cn5ccnc5c(CCC(F)(F)C(F)(F)F)n4)nc(N)c32)s1` (stereo not drawn) [Example 53A, 4-amino-5-cyclopropyl-5-(5-methyl-1,3,4-thiadiazol-2-yl)-2-(8-(3,3,4,4,4-pentafluorobutyl)imidazo[1,2-a]pyrazin-6-yl)-5H-pyrrolo[2,3-d]pyrimidin-6(7H)-one], at sGC α1/β1 heterodimer, the Emax is 104% and the EC50 amounted to 132 nM. The “Maximum peak decrease” value in assay [1] (P.O. 3.0 mpk) is reported as “C (Category C=SBP in SHRs>40 mmHg)”.

Consider `CC1(c2ccc(F)cc2)C(=O)Nc2nc(-c3cn4ccnc4cn3)nc(N)c21` (stereo not drawn) [Example 134A, 4-amino-5-(4-fluorophenyl)-2-(imidazo[1,2-a]pyrazin-6-yl)-5-methyl-5H-pyrrolo[2,3-d]pyrimidin-6(7H)one], for which, on sGC α1/β1 heterodimer, the Emax came out at 118% and the midpoint of the response, the EC50, lay at 627 nM. The “Maximum peak decrease” value in assay [1] (P.O. 3.0 mpk) is listed as “B (Category B=SBP in SHRs 20-40 mmHg)”.

With `CCCc1nc(-c2nc(N)c3c(n2)NC(=O)C3(C)c2ccc(C(F)(F)F)cn2)cn2ccnc12` (stereo not drawn) [Example 132B, 4-amino-5-methyl-2-(8-propylimidazo[1,2-a]pyrazin-6-yl)-5-(5-(trifluoromethyl)pyridin-2-yl)-5H-pyrrolo[2,3-d]pyrimidin-6(7H)-one], at sGC α1/β1 heterodimer, the Emax was found to be 99% and the EC50 turned out to be 949 nM. In addition, in assay [1] (P.O. 3.0 mpk), the “Maximum peak decrease” value was “B (Category B=SBP in SHRs 20-40 mmHg)”.

In the case of `Nc1nc(-c2cn3ccnc3c(CCC(F)(F)F)n2)nc2c1C(c1ccc(Cl)cc1)(C1CC1)C(=O)N2` (stereo not drawn) [Example 198B, 4-amino-5-(4-chlorophenyl)-5-cyclopropyl-2-(8-(3,3,3-trifluoropropyl)imidazo[1,2-a]pyrazin-6-yl)-5H-pyrrolo[2,3-d]pyrimidin-6(7H)-one], at sGC α1/β1 heterodimer, the Emax was determined as 112% and the EC50 was 492 nM. Further, the “Maximum peak decrease” value in assay [1] (P.O. 1.0 mpk) is recorded as “B (Category B=SBP in SHRs 20-40 mmHg)”.

For the compound `CC1(c2ccc(Br)cc2)C(=O)Nc2nc(-c3cn4ccnc4cn3)nc(N)c21` (stereo not drawn) [Example 135A, 4-amino-5-(4-bromophenyl)-2-(imidazo[1,2-a]pyrazin-6-yl)-5-methyl-5H-pyrrolo[2,3-d]pyrimidin-6(7H)-one], on sGC α1/β1 heterodimer, the Emax came to 148% and the EC50 worked out at 57 nM. In addition, the “Maximum peak decrease” value in assay [1] (P.O. 1.0 mpk) is given as “B (Category B=SBP in SHRs 20-40 mmHg)”.

On to `Nc1nc(-c2cn3ccnc3c(CCCC(F)(F)F)n2)nc2c1C(c1ccc(Cl)cc1)(C1CC1)C(=O)N2` (stereo not drawn) [Example 316B, 4-amino-5-(4-chlorophenyl)-5-cyclopropyl-2-(8-(4,4,4-trifluorobutyl)imidazo[1,2-a]pyrazin-6-yl)-5H-pyrrolo[2,3-d]pyrimidin-6(7H)-one], for which, on sGC α1/β1 heterodimer, the Emax was determined as 156% and the EC50 was found to be 29 nM. Also, the “Maximum peak decrease” value in assay [1] (P.O. 0.3 mpk) was “B (Category B=SBP in SHRs 20-40 mmHg)”.

As to `Nc1nc(-c2cn3ccnc3c(CCCC(F)(F)F)n2)nc2c1C(c1cc(C(F)(F)F)ccn1)(C1CC1)C(=O)N2` (single isomer, unassigned) [Example 354B, 4-amino-5-cyclopropyl-2-(8-(4,4,4-trifluorobutyl)imidazo[1,2-a]pyrazin-6-yl)-5-(4-(trifluoromethyl)pyridin-2-yl)-5H-pyrrolo[2,3-d]pyrimidin-6(7H)-one], on sGC α1/β1 heterodimer, the Emax was 137% and the EC50 came out at 170 nM. Also, the “Maximum peak decrease” value in assay [1] (P.O. 1.0 mpk) is reported as “A (Category A=SBP in SHRs<20 mmHg)”.

Consider `CCC1(C2CC2)C(=O)Nc2nc(-c3cn4ccnc4c(CCC(F)(F)C(F)(F)F)n3)nc(N)c21` (stereo not drawn) [Example 86B, 4-amino-5-cyclopropyl-5-ethyl-2-(8-(3,3,4,4,4-pentafluorobutyl)imidazo [1,2-a]pyrazin-6-yl)-5H-pyrrolo[2,3-d]pyrimidin-6(7H)-one], for which, at sGC α1/β1 heterodimer, the Emax came to 102% and the EC50 was determined as 201 nM. In assay [1] (P.O. 3.0 mpk), the “Maximum peak decrease” value is on record as “A (Category A=SBP in SHRs<20 mmHg)”.

Turning to `CC1(c2ccc(C(F)(F)F)cc2)C(=O)Nc2nc(-c3cn4ccnc4c(CCC(F)(F)F)n3)nc(N)c21` (stereo not drawn) [Example 189B, 4-amino-5-methyl-5-(4-(trifluoromethyl)phenyl)-2-(8-(3,3,3-trifluoropropyl)imidazo[1,2-a]pyrazin-6-yl)-5H-pyrrolo[2,3-d]pyrimidin-6(7H)-one], at sGC α1/β1 heterodimer, the Emax was determined as 143% and the EC50 stood at 211 nM. The “Maximum peak decrease” value in assay [1] (P.O. 3.0 mpk) was “B (Category B=SBP in SHRs 20-40 mmHg)”.

As usually defined, the EC50 is the concentration giving half of the maximal effect. Read a low EC50 as higher potency in that assay.
